From article PMC12042115 (mLife, 2025)
Like-named read-outs stand apart in the source and are kept apart here.

System: wild‐type BCG cells
Assay type: cell-based, M. bovis BCG
Conditions: for Mean_Ratio (GDI5755_3d vs DMSO_3d): down-regulated, 3 d; for Mean Ratio: GDI5755_2d vs DMSO_2d; for Mean Ratio / Mean Ratio (GDI5755_2d vs DMSO_2d): up-regulated; for Mean Ratio (GDI5755_2d vs DMSO_2d): 2d

Compound: O=C(Oc1ccc(Cl)cc1)c1ccc(N2CCOCC2)c([N+](=O)[O-])c1 [GDI‐5755]
- Mean_Ratio (GDI5755_3d vs DMSO_3d) (protein A0A0H3MBJ1, BCG_2011c (Rv1994c), HTH-type transcriptional regulator CmtR): 0.738
- Mean Ratio (protein A0A0H3MBK5 Phosphate-binding protein PstS3): 1.29
- Mean Ratio (protein A0A0H3MBM4 NAD(P)H nitroreductase acg): 1.30
- Mean Ratio (protein A0A0H3MBN2 Nuclear transport factor 2 domain-containing protein): 1.27
- Mean Ratio (protein A0A0H3MBN6 Amidohydrolase 3 domain-containing protein): 1.27
- Mean Ratio (GDI5755_2d vs DMSO_2d) (protein A0A0H3MBR5 Probable acetyl-/propionyl-coa carboxylase (Beta subunit) accD2): 1.32
- Mean Ratio (protein A0A0H3MBT4 Probable conserved lipoprotein LppL): 1.32
- Mean Ratio (protein A0A0H3MBZ9 Probable conserved transmembrane protein alanine and leucine rich): 1.27
- Mean_Ratio (GDI5755_3d vs DMSO_3d) (protein A0A0H3MC34, BCG_2260 (Rv2243), Malonyl CoA-acyl carrier protein transacylase fabD): 0.7
- Mean_Ratio (GDI5755_3d vs DMSO_3d) (protein A0A0H3MC70, BCG_1203c (Rv1141c), Probable enoyl-CoA hydratase echA11): 0.7
- Mean_Ratio (GDI5755_3d vs DMSO_3d) (protein A0A0H3MC82, BCG_2311 (Rv2295), CbrC family protein): 0.745
- Mean_Ratio (GDI5755_3d vs DMSO_3d) (protein A0A0H3MC88, BCG_2317 (Rv2301), Cutinase): 0.7
- Mean Ratio (protein A0A0H3MCA1 Alpha/beta hydrolase): 1.25
- Mean_Ratio (GDI5755_3d vs DMSO_3d) (protein A0A0H3MCB3, BCG_1267 (Rv1207), Dihydropteroate synthase): 0.7
- Mean Ratio (protein A0A0H3MCC0 Probable tetronasin-transport atp-binding protein ABC transporter): 1.26
- Mean Ratio (protein A0A0H3MCD2 Transmembrane ATP-binding protein ABC transporter): 1.25
- Mean_Ratio (GDI5755_3d vs DMSO_3d) (protein A0A0H3MCL1, BCG_1383 (Rv1322), ATP/GTP-binding protein): 0.7
- Mean_Ratio (GDI5755_3d vs DMSO_3d) (protein A0A0H3MCL6, BCG_2443c, AAA+ ATPase domain-containing protein): 0.751
- Mean Ratio (protein A0A0H3MD23 Possible exported conserved protein): 1.30
- Mean_Ratio (GDI5755_3d vs DMSO_3d) (protein A0A0H3MDI1, BCG_3731c (Rv1665), Possible chalcone synthase pks11): 0.7
- Mean_Ratio (GDI5755_3d vs DMSO_3d) (protein A0A0H3MDQ0, BCG_2970c (Rv2949c), Chorismate pyruvate-lyase): 0.746
- Mean_Ratio (GDI5755_3d vs DMSO_3d) (protein A0A0H3MDQ9, BCG_2994c (Rv2972c), Possible conserved membrane or exported protein): 0.756
- Mean Ratio (GDI5755_2d vs DMSO_2d) (protein A0A0H3MDS7 Probable conserved lipoprotein lppZ): 1.35
- Mean Ratio (protein A0A0H3ME30 Possible oxidoreductase): 1.30
- Mean_Ratio (GDI5755_3d vs DMSO_3d) (protein A0A0H3ME93, BCG_1959 (Rv1920), Probable membrane protein): 0.752
- Mean Ratio (protein A0A0H3MEA5 methanethiol S-methyltransferase): 1.26
- Mean Ratio (protein A0A0H3MEB3 HNH nuclease domain-containing protein): 1.25
- Mean_Ratio (GDI5755_3d vs DMSO_3d) (protein A0A0H3MEK1, BCG_3412 (Rv3342), Possible methyltransferase (Methylase)): 0.7
- Mean_Ratio (GDI5755_3d vs DMSO_3d) (protein A0A0H3MER9, BCG_3475c (Rv3405c), HTH-type transcriptional repressor): 0.758
- Mean_Ratio (GDI5755_3d vs DMSO_3d) (protein A0A0H3MEW3, BCG_3538c (Rv3473c), Possible peroxidase bpoA): 0.749
- Mean Ratio (GDI5755_2d vs DMSO_2d) (protein A0A0H3MF17 Serine protease Hip1): 1.35
- Mean Ratio (protein A0A0H3MF23 Possible CoA-transferase (Beta subunit)): 1.25
- Mean Ratio (protein A0A0H3MF38 Glycerol-3-phosphate dehydrogenase): 1.31
- Mean_Ratio (GDI5755_3d vs DMSO_3d) (protein A0A0H3MF62, BCG_2297c (Rv2282c), Probable transcription regulator (LysR family)): 0.737
- Mean_Ratio (GDI5755_3d vs DMSO_3d) (protein A0A0H3MFB8, BCG_3726c, Protease): 0.739
- Mean Ratio (protein A0A0H3MFJ3 Transcriptional regulatory protein (Probably arsR-family)): 1.25
- Mean Ratio (GDI5755_2d vs DMSO_2d) (protein A0A0H3MFK9 DSBA-like thioredoxin domain-containing protein): 1.33
- Mean Ratio (GDI5755_2d vs DMSO_2d) (protein A0A0H3MFL5 histidine kinase): 1.35
- Mean Ratio (protein A0A0H3MFN8 Probable O-antigen/lipopolysaccharide transport integral membrane protein ABC transporter rfbD): 1.29
- Mean_Ratio (GDI5755_3d vs DMSO_3d) (protein A0A0H3MFR0, BCG_2539c (Rv2518c), L,D-transpeptidase 2, ldtB/L,D-transpeptidase LdtMt2): 0.7
- Mean Ratio (protein A0A0H3MFS0 Acyltransferase): 1.28
- Mean Ratio (protein A0A0H3MFX4 Protein translocase subunit SecD): 1.31
- Mean_Ratio (GDI5755_3d vs DMSO_3d) (protein A0A0H3MG15, BCG_2663 (Rv2636), O-phosphotransferase): 0.7
- Mean Ratio (protein A0A0H3MG43 Probable antibiotic-transport ATP-binding protein ABC transporter): 1.28
- Mean Ratio (protein A0A0H3MG65 Probable conserved transmembrane protein): 1.25
- Mean Ratio (protein A0A0H3MG92 Conserved 35 kDa alanine rich protein): 1.27
- Mean Ratio (protein A0A0H3MGD9 Metal-dependent hydrolase): 1.32
- Mean_Ratio (GDI5755_3d vs DMSO_3d) (protein A0A0H3MGM3, BCG_2905 (Rv2884), Probable transcriptional regulatory protein): 0.744
- Mean Ratio (protein A0A0H3MGP1 Probable transcriptional regulatory protein (Probably tetR-family)): 1.30
- Mean Ratio (protein A0A0H3MGS1 Probable integral membrane protein): 1.30
- Mean_Ratio (GDI5755_3d vs DMSO_3d) (protein A0A0H3MGU7, BCG_3025c (Rv3003c), Acetolactate synthase): 0.7
- Mean Ratio (protein A0A0H3MH35 Hydroxylase): 1.30
- Mean_Ratio (GDI5755_3d vs DMSO_3d) (protein A0A0H3MH58, BCG_3141 (Rv3116), PRobable molybdenum cofactor biosynthesis protein moeB2): 0.7
- Mean_Ratio (GDI5755_3d vs DMSO_3d) (protein A0A0H3MH84, BCG_3167c (Rv3144c), PPE family protein): 0.7
- Mean_Ratio (GDI5755_3d vs DMSO_3d) (protein A0A0H3MHH8, BCG_3287c (Rv3258c), DUF3499 domain-containing protein): 0.757
- Mean Ratio (GDI5755_2d vs DMSO_2d) (protein A0A0H3MHJ0 Probable metal cation-transporting P-type atpase C ctpC): 1.38
- Mean_Ratio (GDI5755_3d vs DMSO_3d) (protein A0A0H3MIJ3, BCG_3667c (Rv3603c), Conserved hypothetical alanine and leucine rich protein): 0.7
- Mean Ratio (protein A0A0H3MJ41 Uncharacterized protein): 1.29
- Mean_Ratio (GDI5755_3d vs DMSO_3d) (protein A1KF76, BCG_0293c (Rv0255c), Cobyric acid synthase): 0.7
- Mean Ratio (protein A1KFU9 Heparin-binding hemagglutinin): 1.29
- Mean_Ratio (GDI5755_3d vs DMSO_3d) (protein A1KGJ8, BCG_0767 (Rv0717), Small ribosomal subunit protein uS14B): 0.746
- Mean Ratio (protein A1KHB8 Signal transduction histidine-protein kinase/phosphatase MprB): 1.30
- Mean_Ratio (GDI5755_3d vs DMSO_3d) (protein A1KHH0, BCG_1089 (Rv1031), Potassium-transporting ATPase KdpC subunit): 0.7
- Mean Ratio (protein A1KI12 Sec-independent protein translocase protein TatB): 1.27
- Mean_Ratio (GDI5755_3d vs DMSO_3d) (protein A1KI86, BCG_1358 (Rv1298), Large ribosomal subunit protein bL31): 0.7
